Data taken from EP4509511A1, “SUBSTITUTED SPIRO-ISOXAZOLINYL LACTAMS, SALTS THEREOF AND THEIR USE AS HERBICIDALLY ACTIVE SUBSTANCES” (Bayer Aktiengesellschaft, priority 2023, dated 2025).

Assays:
MATIN [1] = assay: Herbicidal post-emergence action - Part I; type: in vivo, Matricaria inodora; conditions: 1280 g/ha, one-leaf stage, rated visually after about 3 weeks vs untreated controls
Procedure: (§1) Seeds of mono- and dicotyledonous weed plants were placed in plastic pots in sandy loam soil (doubly sown with in each case one species of mono- or dicotyledonous weed plants per pot), covered with soil and cultivated in a greenhouse under controlled growth conditions. 2 to 3 weeks after sowing, the test plants were treated at the one-leaf stage. The compounds of the invention, formulated in the form of wettable powders (WP) or as emulsion concentrates (EC), were applied onto the green parts of the plants as aqueous suspension or emulsion with addition of 0.5% additive at a water application rate of 600 liters per hectare (converted). After the test plants had been kept in the greenhouse under optimum growth conditions for about 3 weeks, the activity of the preparations was rated visually in comparison to untreated controls. For example, 100% activity = the plants have died, 0% activity = like control plants. Tables B1 to B12, below, show the effects of selected compounds of the general formula (I) according to table 1 on various harmful plants and an application rate corresponding to 1280 g/ha or below obtained by the experimental procedure mentioned above. Table B1a: post-emergence activity at 1280g/ha against ABUTH in %

POAAN [2] = assay: Herbicidal pre-emergence action - Part I; type: in vivo, Poa annua; conditions: visual grading after ca. 3 weeks vs untreated controls
Source text: (§2) Seeds of mono- and dicotyledonous weed plants were sown in plastic pots (double sowings with one species of mono- and one species of dicotyledonous weed plants per pot), in sandy loam, and covered with soil. The compounds according to the invention, formulated in the form of wettable powders (WP) or as emulsifiable concentrates (EC), were applied to the surface of the covering soil as aqueous suspension or emulsion, with the addition of 0.5% of an additive, at an application rate of 600 1 of water per hectare (converted). Following treatment, the pots were placed in a greenhouse and kept under optimum growth conditions for the test plants. The visual grading of the damage to the test plants was carried out after ca. 3 weeks in comparison to untreated controls (herbicidaleffectinpercent(%):100%effect=plantshavediedoff,0%effect=ascontrolplants). [formula]
(§3) Tables A1 to A12, below, show the effects of selected compounds of the general formula (I) according to table 1 on various harmful plants and an application rate corresponding to 1280 g/ha or below obtained by the experimental procedure mentioned above. Table A1: pre-emergence activity at 1280g/ha against ABUTH in %

STEME [3] = assay: Herbicidal pre-emergence action - Part I; type: in vivo, Stellaria media; conditions: visual grading after ca. 3 weeks vs untreated controls
How it was run: (§4)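 Seeds are sown and covered with sandy loam soil, one monocot and one dicot weed species per pot. The test compound (WP or EC, 0.5% additive, 600 l/ha) is then applied to the soil surface at up to 1280 g/ha. Pots are kept in a greenhouse and injury is rated visually after ca. 3 weeks.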

SETVI [4] = assay: Herbicidal post-emergence action - Part I; type: in vivo, Setaria viridis; conditions: one-leaf stage, rated visually after about 3 weeks vs untreated controls
Procedure: as §1

AMARE [5] = assay: Herbicidal pre-emergence action - Part I; type: in vivo, Amaranthus retroflexus; conditions: visual grading after ca. 3 weeks vs untreated controls
How it was run: as §4

ECHCG [6] = assay: Herbicidal pre-emergence action - Part I; type: in vivo, Echinochloa crus-galli; conditions: visual grading after ca. 3 weeks vs untreated controls
How it was run: as §4

SETVI [7] = assay: Herbicidal pre-emergence action - Part I; type: in vivo, Setaria viridis; conditions: visual grading after ca. 3 weeks vs untreated controls
Source text: as §2, §3

KCHSC [8] = assay: Herbicidal pre-emergence action - Part I; type: in vivo, Kochia scoparia
Source text: as §2, §3

VERPE = assay: Herbicidal post-emergence action - Part I; type: in vivo, Veronica persica; conditions: one-leaf stage, rated visually after about 3 weeks vs untreated controls
How it was run: (§5)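 Activity was scored visually as % damage (100% = dead, 0% = like untreated) about 3 weeks after treatment. Plants at the one-leaf stage, 2-3 weeks old, were sprayed with WP/EC formulations plus 0.5% additive (600 L/ha water, up to 1280 g/ha). Plants were grown in sandy loam in a greenhouse.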

ECHCG [9] = assay: Herbicidal post-emergence action - Part I; type: in vivo, Echinochloa crus-galli; conditions: 1280 g/ha, one-leaf stage, rated visually after about 3 weeks vs untreated controls
Procedure: as §1

STEME [10] = assay: Herbicidal post-emergence action - Part I; type: in vivo, Stellaria media; conditions: one-leaf stage, rated visually after about 3 weeks vs untreated controls
How it was run: as §5

DIGSA [11] = assay: Herbicidal pre-emergence action - Part I; type: in vivo, Digitaria sanguinalis; conditions: visual grading after ca. 3 weeks vs untreated controls
Source text: as §2, §3

MATIN [12] = assay: Herbicidal pre-emergence action - Part I; type: in vivo, Matricaria inodora; conditions: visual grading after ca. 3 weeks vs untreated controls
Source text: as §2, §3

ABUTH = assay: Herbicidal post-emergence action - Part I; type: in vivo, Abutilon theophrasti; conditions: one-leaf stage, rated visually after about 3 weeks vs untreated controls
Procedure: as §1

POAAN [13] = assay: Herbicidal post-emergence action - Part I; type: in vivo, Poa annua; conditions: one-leaf stage, rated visually after about 3 weeks vs untreated controls
Procedure: as §1

KCHSC [14] = assay: Herbicidal post-emergence action - Part I; type: in vivo, Kochia scoparia; conditions: one-leaf stage, rated visually after about 3 weeks vs untreated controls
How it was run: as §5

AMARE [15] = assay: Herbicidal post-emergence action - Part I; type: in vivo, Amaranthus retroflexus; conditions: one-leaf stage, rated visually after about 3 weeks vs untreated controls
How it was run: as §5

LOLRI [16] = assay: Herbicidal pre-emergence action - Part I; type: in vivo, Lolium rigidum; conditions: visual grading after ca. 3 weeks vs untreated controls
Source text: as §2, §3

ALOMY [17] = assay: Herbicidal post-emergence action - Part I; type: in vivo, Alopecurus myosuroides; conditions: one-leaf stage, rated visually after about 3 weeks vs untreated controls
Procedure: as §1

ALOMY [18] = assay: Herbicidal pre-emergence action - Part I; type: in vivo, Alopecurus myosuroides; conditions: visual grading after ca. 3 weeks vs untreated controls
Source text: as §2, §3

DIGSA [19] = assay: Herbicidal post-emergence action - Part I; type: in vivo, Digitaria sanguinalis; conditions: 1280 g/ha, one-leaf stage, rated visually after about 3 weeks vs untreated controls
Procedure: as §1

LOLRI [20] = assay: Herbicidal post-emergence action - Part I; type: in vivo, Lolium rigidum; conditions: one-leaf stage, rated visually after about 3 weeks vs untreated controls
Procedure: as §1

[21] = Table A10a, 1280 g/ha, visual grading after ca. 3 weeks vs untreated controls

Cc1ccsc1C1=NOC2(CCCN(Cc3ccccc3F)C2=O)C1 (racemic) [Compound I-1, 7-(2-Fluorobenzyl)-3-(3-methyl-2-thienyl)-1-oxa-2,7-diazaspiro[4.5]dec-2-en-6-one] was tested, and the “post-emergence activity at 1280g/ha against MATIN in %” value (MATIN [1]) was 90%, the “pre-emergence activity at 320g/ha and against POAAN in %” value (POAAN [2]) was 100% and the “pre-emergence activity at 1280g/ha and against POAAN in %” value (POAAN [2]) was 100%. For the same compound, the “pre-emergence activity at 80g/ha against STEME in %” value (STEME [3]; 80 g/ha) was 90%, the “pre-emergence activity at 320g/ha against STEME in %” value (STEME [3]) was 90% and the “pre-emergence activity at 1280g/ha against STEME in %” value (STEME [3]) was 90%. For the same compound, the “post-emergence activity at 320g/ha against SETVI in %” value (SETVI [4]; 320 g/ha) was 90%, the “post-emergence activity at 1280g/ha against SETVI in %” value (SETVI [4]) was 90% and the “pre-emergence activity at 320g/ha against AMARE in %” value (AMARE [5]; 320 g/ha) was 90%. For the same compound, the “pre-emergence activity at 1280g/ha against AMARE in %” value (AMARE [5]) was 90%, the “pre-emergence activity at 320g/ha against ECHCG in %” value (ECHCG [6]) was 100% and the “pre-emergence activity at 1280g/ha against ECHCG in %” value (ECHCG [6]) was 100%. The “pre-emergence activity at 320g/ha and against SETVI in %” value (SETVI [7]; 320 g/ha) was 100%, the “pre-emergence activity at 1280g/ha and against SETVI in %” value (SETVI [7]) was 100% and the “pre-emergence activity at 1280g/ha against KCHSC in %” value (KCHSC [8]; [21]) was 90%. The “pre-emergence activity at 1280g/ha against KCHSC in %” value (KCHSC [8]; Table A10b, title 1280g/ha, application rate column prints 320 g/ha, visual grading after ca. 3 weeks vs untreated controls) was 90%, the “post-emergence activity at 320g/ha against VERPE in %” value (VERPE; 320 g/ha) was 90% and the “post-emergence activity at 1280g/ha against VERPE in %” value (VERPE) was 90%. The “post-emergence activity at 1280g/ha against ECHCG in %” value (ECHCG [9]) was 90%, the “post-emergence activity at 320g/ha against STEME in %” value (STEME [10]; 320 g/ha) was 90% and the “post-emergence activity at 1280g/ha against STEME in %” value (STEME [10]) was 90%. For the same compound, the “pre-emergence activity at 1280g/ha against DIGSA in %” value (DIGSA [11]) was 100%, the “pre-emergence activity at 320g/ha against MATIN in %” value (MATIN [12]) was 90% and the “pre-emergence activity at 1280g/ha against MATIN in %” value (MATIN [12]) was 100%. The “post-emergence activity at 320g/ha against ABUTH in %” value (ABUTH; 320 g/ha) was 90%, the “post-emergence activity at 1280g/ha against ABUTH in %” value (ABUTH; 1280 g/ha) was 90% and the “post-emergence activity at 80g/ha against POAAN in %” value (POAAN [13]; 80 g/ha) was 90%. For the same compound, the “post-emergence activity at 320g/ha against POAAN in %” value (POAAN [13]; 320 g/ha) was 90%, the “post-emergence activity at 1280g/ha against POAAN in %” value (POAAN [13]; 1280 g/ha) was 90% and the “post-emergence activity at 320g/ha against KCHSC in %” value (KCHSC [14]; 320 g/ha) was 90%. For the same compound, the “post-emergence activity at 1280g/ha against KCHSC in %” value (KCHSC [14]) was 90%, the “post-emergence activity at 1280g/ha against AMARE in %” value (AMARE [15]) was 90% and the “pre-emergence activity at 1280g/ha against LOLRI in %” value (LOLRI [16]) was 90%. The “post-emergence activity at 1280g/ha against ALOMY in %” value (ALOMY [17]) was 90%.
In the case of N#Cc1ncccc1C1=NOC2(CCN(Cc3ccccc3F)C2=O)C1 (racemic) [Compound I-35], the “pre-emergence activity at 320g/ha and against POAAN in %” value (POAAN [2]) is reported as 100%, the “pre-emergence activity at 1280g/ha and against POAAN in %” value (POAAN [2]) is reported as 100% and the “pre-emergence activity at 320g/ha against STEME in %” value (STEME [3]) is reported as 90%. The “pre-emergence activity at 1280g/ha against STEME in %” value (STEME [3]) was 90%, the “post-emergence activity at 1280g/ha against SETVI in %” value (SETVI [4]) was 90% and the “pre-emergence activity at 1280g/ha against AMARE in %” value (AMARE [5]) was 90%. The “pre-emergence activity at 320g/ha against ECHCG in %” value (ECHCG [6]) was 90%, the “pre-emergence activity at 1280g/ha against ECHCG in %” value (ECHCG [6]) was 100% and the “pre-emergence activity at 1280g/ha and against SETVI in %” value (SETVI [7]) was 100%. For the same compound, the “pre-emergence activity at 1280g/ha against KCHSC in %” value (KCHSC [8]; 1280 g/ha, 504 h) was 90%, the “pre-emergence activity at 1280g/ha against KCHSC in %” value (KCHSC [8]; [21]) was 90% and the “pre-emergence activity at 1280g/ha against ALOMY in %” value (ALOMY [18]) was 90%. The “post-emergence activity at 1280g/ha against VERPE in %” value (VERPE) was 90%, the “post-emergence activity at 1280g/ha against ECHCG in %” value (ECHCG [9]) was 90% and the “post-emergence activity at 1280g/ha against STEME in %” value (STEME [10]) was 90%. The “pre-emergence activity at 320g/ha against DIGSA in %” value (DIGSA [11]; 320 g/ha) was 100%, the “pre-emergence activity at 1280g/ha against DIGSA in %” value (DIGSA [11]) was 100% and the “post-emergence activity at 1280g/ha against DIGSA in %” value (DIGSA [19]) was 90%. The “pre-emergence activity at 320g/ha against MATIN in %” value (MATIN [12]) was 90%, the “pre-emergence activity at 1280g/ha against MATIN in %” value (MATIN [12]) was 90% and the “post-emergence activity at 1280g/ha against LOLRI in %” value (LOLRI [20]) was 90%. For the same compound, the “post-emergence activity at 1280g/ha against KCHSC in %” value (KCHSC [14]) was 90%, the “post-emergence activity at 320g/ha against AMARE in %” value (AMARE [15]; 320 g/ha) was 90% and the “post-emergence activity at 1280g/ha against AMARE in %” value (AMARE [15]) was 90%. The “pre-emergence activity at 320g/ha against LOLRI in %” value (LOLRI [16]; 320 g/ha) was 90% and the “pre-emergence activity at 1280g/ha against LOLRI in %” value (LOLRI [16]) was 90%.
